The source of these data is patent US20120284853A1, “HERBICIDE-TOLERANT PLANTS” (BASF AGROCHEMICAL PRODUCTS, B.V., priority 2009, published 2012).

One experiment has as its system rice plants. The experiment is described as follows: Greenhouse spray test of M0 regenerants, rated for herbicide injury. The format is in vivo. As to conditions: 400-1600 g ai/ha with 0.1% methylated seed oil, subset 800 g ai/ha, rated 1 and 2 weeks after treatment. As for the experimental part:
Selected mutants and escapes were transferred to small pots. Wild-type cultivars and 3 biovars of red rice were germinated from seed to serve as controls.
After ca. 3 weeks post-transplant, M0 regenerants were sprayed using a track sprayer with 400-1600 g ai/ha cycloxydim (BAS 517H) supplemented with 0.1% methylated seed oil. After the plants had adapted to greenhouse conditions, a subset were sprayed with 800 g ai/ha cycloxydim. Once sprayed, plants were kept on drought conditions for 24 hours before being watered and fertilized again. Sprayed plants were photographed and rated for herbicide injury at 1 (FIG. 3) and 2 weeks after treatment (FIG. 4). […] FIGS. 5-15 provide nucleic acid and/or amino acid sequences of acetyl-Coenzyme A carboxylase enzymes from various plants. FIG. 17 provides a graph showing results for mutant rice versus various ACCase inhibitors.

Experiment [1] has as its system ACCase-inhibitor tolerant rice plants. Kind of experiment: Field treatment of ACCase-inhibitor tolerant rice plants. The experiment is classed as in vivo. The conditions noted are these: 600 g/ha treatment; data not shown.
Experiment [2] has as its system rice calli derived from Oryza sativa subsp. indica. Kind of experiment: Kill curves of rice calli in tissue culture (toxic levels of ACCase inhibitors). The format is cell-based. The conditions noted are these: determined by kill curves and observations of continued culture; rice calli on R001M. As for the experimental part: FIG. 1 is a bar graph showing relative growth rice calli derived from Oryza sativa subsp. indica grown in the presence of difference selection levels of herbicide.
Once tissue culture conditions were determined, further establishment of selection conditions were established through the analysis of tissue survival in kill curves with cycloxydim, tepraloxydim, sethoxydim (FIG. 1) or haloxyfop (not shown). Careful consideration of accumulation of the herbicide in the tissue, as well as its persistence and stability in the cells and the culture media was performed. Through these experiments, a sub-lethal dose has been established for the initial selection of mutated material.
After the establishment of the starting dose of sethoxydim, cycloxydim, tepraloxydim, and haloxyfop in selection media, the tissues were selected in a step-wise fashion by increasing the concentration of the ACCase inhibitor with each transfer until cells are recovered that grew vigorously in the presence of toxic doses (see FIG. 2). […] Over 26,000 calli were subjected to selection for 4-5 subcultures until the selective pressure was above toxic levels as determined by kill curves and observations of continued culture. Toxic levels were determined to be 50 μM sethoxydim, 20 μM cycloxydim, 2.5 μM tepraloxydim (FIG. 1) and 10 μM haloxyfop (not shown).

On to `CCCC(=NOCC)C1=C(O)CC(C2CCCSC2)CC1=O` (centres unmarked) [cycloxydim], for which the herbicide injury result with rice plants (control plants and tissue culture escapes) is given as “heavily damaged”; in the experiment on rice plants (plants containing the I1,781(Am)L heterozygous mutation), “No injury”. In addition, the “herbicide tolerance phenotype in the field” value in experiment [1] is on record as “Herbicide tolerance phenotypes as described herein have also been exhibited”.
In experiment [2], `CCC/C(=N\OCC)C1=C(O)CC(CC(C)SCC)CC1=O` (centres unmarked) [sethoxydim] yielded a Toxic levels of 50 µM.
`CC/C(=N\OC/C=C/Cl)C1=C(O)CC(C2CCOCC2)CC1=O` (centres unmarked) [tepraloxydim] returned a Toxic levels in experiment [2] of 2.5 µM.
